Results reported in publication PMC5396026 (Chemical Research in Toxicology, 2016).

Each molecule was assayed on AR pathway (assay: not given). Settings: not given.
In the case of `C[C@]12CC[C@@H]3c4ccc(O)cc4CC[C@H]3[C@@H]1CC[C@H]2O` [17a-estradiol], the “AR pathway model AUC, Agonist (R1)” value was 0.67. In the case of `CC/C(=C(\c1ccccc1)c1ccc(OCCN(C)C)cc1)c1ccccc1` [tamoxifen], the “AR pathway model AUC, Agonist (R1)” value was 0.0335.

Same assay, conditions: agonist reference chemicals
For `C[C@]12CC[C@@H]3c4ccc(O)cc4CC[C@H]3[C@@H]1CC[C@H]2O` [17a-estradiol], the “AR pathway model agonist prediction against reference classification” value was “false positive”.

Same assay, conditions: antagonist reference chemicals
For `C[C@H]1CCCC(=O)CCC/C=C/c2cc(O)cc(O)c2C(=O)O1` [zearalenone], the “AR pathway model antagonist prediction against reference classification” value was “false negative”.

Same assay, conditions: maximum of agonist or antagonist AUC
`N#Cc1c(Cl)cccc1Cl` [dichlobenil] was tested, and the “AR pathway model call” value was “negative (negative if the maximum was <0.001)”. In the case of `Oc1ccccc1-c1ccccc1` [2-phenylphenol], the “AR pathway model call” value was “negative (negative if the maximum was <0.001)”. In the case of `COP(=S)(OC)SCN1C(=O)c2ccccc2C1=O` [phosmet], the “AR pathway model call” value was “negative (negative if the maximum was <0.001)”. `CCCCC(C#N)(Cn1cncn1)c1ccc(Cl)cc1` (stereo not drawn) [myclobutanil] was tested, and the “AR pathway model call” value was “negative (negative if the maximum was <0.001)”. For `CCc1cccc(C)c1N(C(=O)CCl)C(C)COC` (stereo not drawn) [metolachlor], the “AR pathway model call” value was “negative (negative if the maximum was <0.001)”. In the case of `CCOP(=S)(OCC)Oc1cc(C)nc(C(C)C)n1` [diazinon], the “AR pathway model call” value was “negative (negative if the maximum was <0.001)”. `CNC(=O)Oc1cccc2ccccc12` [carbaryl] was tested, and the “AR pathway model call” value was “negative (negative if the maximum was <0.001)”.

What follows are molecules tested on cytotoxicity (assay: not given). Settings: distance of AR assay logAC50 from median cytotoxicity logAC50; high = >3.
Type: cell-based
`C=CC1(C)OC(=O)N(c2cc(Cl)cc(Cl)c2)C1=O` (stereo not drawn) [vinclozolin] was tested, and the “average Z-score” value was “high”. With `O=c1cc(-c2ccc(O)cc2)oc2cc(O)cc(O)c12` [apigenin] the “average Z-score” value was “high”. `CC(=O)S[C@@H]1CC2=CC(=O)CC[C@]2(C)[C@H]2CC[C@@]3(C)[C@@H](CC[C@@]34CCC(=O)O4)[C@H]12` [spironolactone] was tested, and the “average Z-score” value was “high”. With `CON(C)C(=O)Nc1ccc(Cl)c(Cl)c1` [linuron] the “average Z-score” value was “high”. `CC1(C)NC(=O)N(c2ccc([N+](=O)[O-])c(C(F)(F)F)c2)C1=O` [nilutamide] was tested, and the “average Z-score” value was “high”. With `CC(C)(O)C(=O)Nc1ccc([N+](=O)[O-])c(C(F)(F)F)c1` [hydroxyflutamide] the “average Z-score” value was “high”.

The molecules below were run against T1, AR (Homo sapiens, UniProt P10275) (assay: not given). Settings: AC50 at 10 nM vs 0.5 nM R1881, 95% confidence intervals.
T1 sequence (P10275 1-920): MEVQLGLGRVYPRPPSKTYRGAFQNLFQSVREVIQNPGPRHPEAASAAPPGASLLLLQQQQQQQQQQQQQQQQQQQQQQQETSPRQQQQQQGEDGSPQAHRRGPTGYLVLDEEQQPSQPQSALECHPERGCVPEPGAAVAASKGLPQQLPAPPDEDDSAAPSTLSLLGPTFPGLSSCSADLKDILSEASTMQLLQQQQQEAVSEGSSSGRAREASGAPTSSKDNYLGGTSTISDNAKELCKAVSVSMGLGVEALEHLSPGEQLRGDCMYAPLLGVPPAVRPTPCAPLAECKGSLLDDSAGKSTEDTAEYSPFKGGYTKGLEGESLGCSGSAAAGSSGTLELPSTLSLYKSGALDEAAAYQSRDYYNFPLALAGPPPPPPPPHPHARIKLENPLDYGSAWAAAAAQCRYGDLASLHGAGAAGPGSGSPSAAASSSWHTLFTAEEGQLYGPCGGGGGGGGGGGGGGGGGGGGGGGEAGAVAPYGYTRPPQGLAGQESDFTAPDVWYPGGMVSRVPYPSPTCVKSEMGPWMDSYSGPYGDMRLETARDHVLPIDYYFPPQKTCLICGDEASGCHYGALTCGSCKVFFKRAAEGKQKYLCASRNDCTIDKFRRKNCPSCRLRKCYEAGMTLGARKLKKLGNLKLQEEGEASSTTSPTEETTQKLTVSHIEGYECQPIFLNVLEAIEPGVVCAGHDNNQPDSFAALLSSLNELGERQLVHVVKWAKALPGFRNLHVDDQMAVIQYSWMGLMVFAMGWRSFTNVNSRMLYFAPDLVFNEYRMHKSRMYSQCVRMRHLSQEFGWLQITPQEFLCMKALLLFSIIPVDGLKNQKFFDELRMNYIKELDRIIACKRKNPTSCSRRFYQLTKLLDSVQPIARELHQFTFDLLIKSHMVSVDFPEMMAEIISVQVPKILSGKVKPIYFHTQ
Type: cell-based
`CC/N=c1\cc2oc3cc(NCC)c(C)cc3c(-c3ccccc3C(=O)OCC)c-2cc1C` [rhodamine 6G] was tested, and the “potency shift in antagonist confirmation assay” value (“potency shift” below) was “flagged for a lack of a potency shift”. `C[C@H]1CCCC(=O)CCC/C=C/c2cc(O)cc(O)c2C(=O)O1` [zearalenone] was tested, and the “potency shift” value was “active in both screens and exhibited a potency shift in the expected direction”. With `CC[C@H](c1ccc(O)cc1)[C@@H](CC)c1ccc(O)cc1` [meso-hexestrol] the “potency shift” value was “shift in the correct direction but with overlapping confidence intervals”. For `CCN=C1C=CC(=C(c2ccc(N(CC)CC)cc2)c2ccc(N(CC)CC)cc2)c2ccccc21.Cl` [basic blue 7], the “potency shift” value was “flagged for a lack of a potency shift”.

These molecules were tested against T2, AR (Rattus norvegicus, UniProt P15207) (assay: Literature review: AR transactivation assays, agonist mode). Settings: reference classification from curated literature TA data (mean AC50).
T2 sequence (P15207 1-902): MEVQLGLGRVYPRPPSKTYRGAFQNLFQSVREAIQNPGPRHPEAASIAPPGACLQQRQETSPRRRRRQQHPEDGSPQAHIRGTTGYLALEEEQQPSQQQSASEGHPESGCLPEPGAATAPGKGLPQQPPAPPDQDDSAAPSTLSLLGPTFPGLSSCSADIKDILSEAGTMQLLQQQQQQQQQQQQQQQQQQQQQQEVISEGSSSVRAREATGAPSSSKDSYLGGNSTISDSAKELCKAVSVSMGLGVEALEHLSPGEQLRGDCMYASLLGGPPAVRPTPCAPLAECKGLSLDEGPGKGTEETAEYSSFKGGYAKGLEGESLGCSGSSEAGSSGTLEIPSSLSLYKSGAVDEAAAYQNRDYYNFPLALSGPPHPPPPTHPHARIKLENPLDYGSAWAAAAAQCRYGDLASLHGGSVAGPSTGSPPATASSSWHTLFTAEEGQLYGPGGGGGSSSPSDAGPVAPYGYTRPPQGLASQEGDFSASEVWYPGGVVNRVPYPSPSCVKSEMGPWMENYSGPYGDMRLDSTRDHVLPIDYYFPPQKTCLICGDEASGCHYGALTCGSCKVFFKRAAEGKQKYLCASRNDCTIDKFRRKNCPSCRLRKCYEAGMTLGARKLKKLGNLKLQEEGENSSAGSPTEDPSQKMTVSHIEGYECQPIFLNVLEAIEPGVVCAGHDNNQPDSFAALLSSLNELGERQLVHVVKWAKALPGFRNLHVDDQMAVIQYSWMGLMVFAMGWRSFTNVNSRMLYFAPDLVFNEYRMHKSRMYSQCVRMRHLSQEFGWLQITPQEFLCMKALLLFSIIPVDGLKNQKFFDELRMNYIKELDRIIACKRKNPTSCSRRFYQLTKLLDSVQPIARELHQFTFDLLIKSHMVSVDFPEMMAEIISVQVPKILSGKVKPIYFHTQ
`CC1(C)C(C=C(Cl)Cl)C1C(=O)OCc1cccc(Oc2ccccc2)c1` (stereo not drawn) [permethrin] was tested, and the agonist potency category was “negative”. In the case of `CC1(C)[C@H](C(=O)O[C@H](C#N)c2cccc(Oc3ccccc3)c2)[C@@H]1C=C(Br)Br` [deltamethrin], the agonist potency category was “negative”. For `C[C@]1(O)CC[C@H]2[C@@H]3CCC4=CC(=O)CCC4=C3C=C[C@@]21C` [methyltrienolone (R1881), methyltrienolone], the agonist potency category was “strong (Strong: mean AC50 ≤ 0.1 μM)”. With `C[C@]12CC[C@@H]3c4ccc(O)cc4C[C@@H](CCCCCCCCC[S+]([O-])CCCC(F)(F)C(F)(F)F)[C@H]3[C@@H]1CC[C@@H]2O` (stereo partly drawn) [ICI 182,780] the agonist potency category was “negative”. For `CCCCNC(=O)n1c(NC(=O)OC)nc2ccccc21` [benomyl], the agonist potency category was “negative”. In the case of `C[C@]12C=CC3=C4CCC(=O)C=C4CC[C@H]3[C@@H]1CC[C@@H]2O` [17b-trenbolone], the agonist potency category was “strong (Strong: mean AC50 ≤ 0.1 μM)”. `CC(C)=CC1C(C(=O)OCN2C(=O)C3=C(CCCC3)C2=O)C1(C)C` (stereo not drawn) [tetramethrin] was tested, and the agonist potency category was “negative”. With `Oc1ccc(/C=C/c2cc(O)cc(O)c2)cc1` [resveratrol] the agonist potency category was “negative”. For `COC(=O)Nc1nc2ccccc2[nH]1` [carbendazim], the agonist potency category was “negative”.
